{"source": "patent US20030129204A1", "about": "“Vaccines against helminthic parasites” (priority 1994, published 2003)", "key": {"[1]": {"system": "TSBP proteinases", "assay_type": "biochemical, H. contortus", "conditions": "for proteolysis reduced in the presence of inhibitor (percent activity lost): pH 8.5", "protocol": "TSBP (2 μg protein in 10 μl) were mixed with 1OO μl sterile buffer (0.1M acetate, pH5) and 20 μl azocasein (1 mg/ml) in the same buffet. The reaction mixture was supplemented with penicillin (500 iu/ml) and streptomycin (5 mg/ml), vortexed briefly and then incubated overnight at 37° C. Undigested protein was precipitated by the addition of 1M perchloric acid (13O μl) and incubation on ice for 30 minutes. Following centrifugation at 11,000 g for 5 minutes the 0D405 of the resulting supernatant was determined. Blank reactions, containing sterile water instead of TSBP, were run in parallel. The optimal pH for enzyme activity was determined in a series of reactions using buffers over the pH range 3 to 10.\nThe effects of various proteinase inhibitors on TSBP proteinases were monitored by incubating TSBP with buffer supplemented with inhibitor for 30 minutes prior to addition of azocasein and antibiotics. Inhibitors tested and the final reaction concentrations were phenylmethanesulphonylfluoride (PMSF, 1.0 mM), L-transepoxysuccinyl-L-leucylamido-(4-guanidino)-butane (E64, 100 μM), ethylenediaminetetraacetic-acid (EDTA, 1.0 mM) and pepstatin (10 μM)."}, "[2]": {"system": "TSBP proteinases", "experiment": "Gelatin-substrate gel analysis of TSBP proteinases with inhibitors (H. contortus)", "assay_type": "biochemical", "conditions": "for 70 kDa proteinase activity / 88 kDa proteinase activity: pH 8.5, PMSF 1.0 mM or EDTA 1.0 mM", "protocol": "(§1) TSBP were fractionated by non-reducing SDS-PAGE in 7.5% gel slabs containing 0.1% gelatin. The electrode buffer (Laemmli, 1977) was chilled on ice prior to use. After electrophoresis, SDS was eluted from the gel by extensive washing with 2.5% Triton X-100 for 30 minutes. Gel slabs were incubated overnight at 37° C. in 0.1M acetate buffer pH 5, 2 mM with respect to DTT or 0.1M Tris, pH 8.5. For some experiments TSBP were incubated with proteinase inhibitors prior to electrophoresis and inhibitors were also included in the incubation buffer at the final concentrations indicated above. Proteinases were visualised by Coomassie blue counter-staining."}, "[3]": {"system": "TSBP proteinases", "experiment": "Gelatin-substrate gel analysis of TSBP proteinases with inhibitors (O. circumcincta)", "assay_type": "biochemical", "protocol": "as §1\nProteinase activity associated with TSBP was monitored using gelatin-substrate gel analysis as described in Example 2 (paragraph (b)) to enable the characterisation of individual proteinases."}, "[4]": {"conditions": "pH 5, azocasein, PMSF 1.0 mM, EDTA 1.0 mM, pepstatin 10 μM"}}, "note": "Like-named read-outs stand apart in the source and are kept apart here. Where a SMILES comes first, the peptide text is derived from it. [ ]: non-standard residue; d: D form. The star is where a group is joined. Sta = CC(C)C[C@H](N)[C@@H](O)CC(=O)O; Isovaleryl = CC(C)CC(=O)*"}
{"compound": "O=C(O)CN(CCN(CC(=O)O)CC(=O)O)CC(=O)O", "note": "[EDTA, ethylenediaminetetraacetic-acid]", "values": [{"measurement": "percent activity lost in comparison to a control preparation in the absence of the inhibitor", "setting": "[1]; pH 5", "result": 11, "unit": "%"}, {"measurement": "proteolysis reduced in the presence of inhibitor (percent activity lost)", "setting": "[1]", "result": 43, "unit": "%"}, {"measurement": "70 kDa proteinase activity", "setting": "[2]", "result": "markedly reduced"}, {"measurement": "88 kDa proteinase activity", "setting": "[2]", "result": "completely inhibited"}]}
{"compound": "c1cnc2c(c1)ccc1cccnc12", "note": "[1,10 Phe]", "values": [{"measurement": "97 kDa protease", "setting": "[3]; pH 8.5", "result": "inhibited"}]}
{"compound": "CC(C)C[C@H](NC(=O)[C@H]1O[C@@H]1C(=O)O)C(=O)NCCCCN=C(N)N", "note": "[E64, L-transepoxysuccinyl-L-leucylamido-(4-guanidino)-butane]", "values": [{"measurement": "TSBP proteinase activity in the presence of inhibitor", "setting": "[1]; pH 5, azocasein, E64 100 μM", "result": "eliminated"}, {"measurement": "zones of proteolysis at 40, 50 and 70 kDa and stack/separating gel interface", "setting": "[3]; pH 5", "result": "completely inhibited"}, {"measurement": "zones of proteolysis at 37-38, 52, 70 and 100 kDa", "setting": "[2]; pH 5, E64 100 μM", "result": "abolished"}]}
{"compound": "O=S(=O)(F)Cc1ccccc1", "note": "[PMSF, phenylmethanesulphonylfluoride]", "values": [{"measurement": "percent activity lost in comparison to a control preparation in the absence of the inhibitor", "setting": "[1]; [4]", "result": 28, "unit": "%"}, {"measurement": "proteolysis reduced in the presence of inhibitor (percent activity lost)", "setting": "[1]; azocasein, PMSF 1.0 mM, EDTA 1.0 mM", "result": 52, "unit": "%"}, {"measurement": "85 kDa doublet proteolysis", "setting": "[3]; pH 8.5", "result": "inhibited"}, {"measurement": "97 kDa protease", "setting": "[3]; pH 8.5", "result": "inhibited"}, {"measurement": "70 kDa proteinase activity", "setting": "[2]", "result": "markedly reduced"}, {"measurement": "88 kDa proteinase activity", "setting": "[2]", "result": "completely inhibited"}]}
{"compound": "CC(C)CC(=O)N[C@H](C(=O)N[C@H](C(=O)N[C@@H](CC(C)C)[C@@H](O)CC(=O)N[C@@H](C)C(=O)N[C@@H](CC(C)C)[C@@H](O)CC(=O)O)C(C)C)C(C)C", "note": "[Pepstatin, pepstatin] (Isovaleryl-VV[Sta]A[Sta]-OH)", "values": [{"measurement": "percent activity lost in comparison to a control preparation in the absence of the inhibitor", "setting": "[1]; [4]", "result": 6, "unit": "%"}]}
